According to US12441768B2, “Compositions and methods for treating endometriosis” (EndoMet Biosciences, Inc., priority 2018, dated 2025):
pEC50, pKd: −log10 of the molar value. Where a SMILES comes first, the peptide text is derived from it.

How the values were obtained:
[1] = biological target: Wnt-responsive promoter (TCF/LEF); experiment: Wnt-dependent luciferase reporter assay; format: cell-based, murine
Method in brief: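 Murine 3T3 fibroblasts carrying a TCF/LEF-driven luciferase reporter, stimulated with Wnt3a in the presence of increasing peptide concentrations or vehicle. Luminescence inhibition gave EC50 values in uM.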

[2] = biological target: T1, β-catenin (Homo sapiens, UniProt P35222); experiment: KD50 measurement using competitive fluorescence polarization (FP) with labelled TCF4; format: binding; settings: fluorescence polarization, β-catenin; for pKd: read-out: β-Cat FP KD
T1 sequence (P35222 1-781): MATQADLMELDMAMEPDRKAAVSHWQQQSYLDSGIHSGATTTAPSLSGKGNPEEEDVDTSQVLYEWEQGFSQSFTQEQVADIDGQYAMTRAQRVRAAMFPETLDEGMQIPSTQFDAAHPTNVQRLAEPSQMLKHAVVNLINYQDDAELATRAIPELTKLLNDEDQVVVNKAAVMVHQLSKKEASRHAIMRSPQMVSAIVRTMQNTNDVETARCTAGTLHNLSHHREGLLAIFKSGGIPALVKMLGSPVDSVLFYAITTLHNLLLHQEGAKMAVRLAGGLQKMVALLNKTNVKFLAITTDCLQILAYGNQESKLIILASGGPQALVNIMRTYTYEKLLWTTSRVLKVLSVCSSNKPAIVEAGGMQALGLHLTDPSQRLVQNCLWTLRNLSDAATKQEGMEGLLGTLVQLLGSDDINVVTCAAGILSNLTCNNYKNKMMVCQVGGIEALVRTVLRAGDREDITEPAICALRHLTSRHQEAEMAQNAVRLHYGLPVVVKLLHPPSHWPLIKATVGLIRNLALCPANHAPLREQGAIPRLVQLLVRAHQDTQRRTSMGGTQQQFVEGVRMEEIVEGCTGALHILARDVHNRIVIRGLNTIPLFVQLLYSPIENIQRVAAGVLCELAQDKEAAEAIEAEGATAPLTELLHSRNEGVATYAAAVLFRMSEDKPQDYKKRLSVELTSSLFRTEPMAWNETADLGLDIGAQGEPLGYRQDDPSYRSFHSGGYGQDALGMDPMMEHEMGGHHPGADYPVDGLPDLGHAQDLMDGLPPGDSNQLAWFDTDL
Method in brief: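 5 nM labelled TCF4 was combined with 100 nM β-catenin at room temperature, then inhibitor was titrated in serial dilutions from 10 nM to 30 uM. Polarization was read at excitation 470 nm, emission 520 nm; displacement lowers the signal. Three independent experiments.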

[3] = % Viability non-Wnt responsive cells

## CC[C@H](C)[C@H](NC(=O)[C@H](CC(C)C)NC(=O)[C@H](Cc1ccc(O)cc1)NC(=O)[C@H](Cc1c[nH]c2ccccc12)NC(=O)[C@H](CCSC)NC(=O)[C@H](CCCNC(=N)N)NC(=O)[C@H](CO)NC(=O)[C@@H](N)CCSC)C(=O)N[C@@H](CO)C(=O)N[C@@H](Cc1ccccc1)C(=O)N[C@@H](Cc1c[nH]c2ccccc12)C(=O)NCC(=O)O [compound 66] (H-MSRMWYLISFWG-OH)
[1]
  pEC50: 4.82 to 5.12
[2]
  β-Cat FP Hill slope: 0.7
  pKd: 4.52 to 5.00
[3]
  viability: 98.6%

## CC[C@H](C)[C@H](NC(=O)[C@H](CC(C)C)NC(=O)[C@H](Cc1ccccc1)NC(=O)[C@H](Cc1c[nH]c2ccccc12)NC(=O)[C@H](CCSC)NC(=O)[C@H](CCCNC(=N)N)NC(=O)CNC(=O)[C@@H](N)CCSC)C(=O)N[C@@H](CO)C(=O)N[C@@H](Cc1ccccc1)C(=O)N[C@@H](Cc1c[nH]c2ccccc12)C(=O)NCC(=O)O [compound 67] (H-MGRMWFLISFWG-OH)
[1]
  pEC50: > 5.12
[2]
  β-Cat FP Hill slope: 0.99
  pKd: 5.00 to 6.00
[3]
  viability: 101%

## CC[C@H](C)[C@H](NC(=O)[C@H](CC(C)C)NC(=O)[C@H](Cc1ccccc1)NC(=O)[C@H](Cc1c[nH]c2ccccc12)NC(=O)[C@H](CCSC)NC(=O)[C@H](CCCNC(=N)N)NC(=O)[C@H](CO)NC(=O)[C@@H](N)CCSC)C(=O)N[C@@H](CO)C(=O)N[C@@H](CC(C)C)C(=O)N[C@@H](Cc1c[nH]c2ccccc12)C(=O)NCC(=O)O [compound 68] (H-MSRMWFLISLWG-OH)
[1]
  pEC50: 4.82 to 5.12
[2]
  pKd: < 4.52
[3]
  viability: 91.2%

## CC[C@H](C)[C@H](NC(=O)[C@H](CC(C)C)NC(=O)[C@H](Cc1ccccc1)NC(=O)[C@H](Cc1c[nH]c2ccccc12)NC(=O)[C@H](CCSC)NC(=O)[C@H](CCCNC(=N)N)NC(=O)[C@H](CO)NC(=O)[C@@H](N)CCSC)C(=O)N[C@@H](CO)C(=O)N[C@@H](Cc1ccccc1)C(=O)N[C@@H](CCCNC(=N)N)C(=O)NCC(=O)O [compound 69] (H-MSRMWFLISFRG-OH)
[1]
  pEC50: < 4.52
[2]
  β-Cat FP Hill slope: 1.64
  pKd: > 6.40
[3]
  viability: 99.7%

## CSCC[C@H](NC(=O)[C@H](CCCNC(=N)N)NC(=O)[C@H](CO)NC(=O)[C@@H](N)CCSC)C(=O)N[C@@H](Cc1c[nH]c2ccccc12)C(=O)N[C@@H](Cc1ccccc1)C(=O)N[C@@H](CC(C)C)C(=O)N[C@@H](CC(N)=O)C(=O)N[C@@H](CO)C(=O)N[C@@H](Cc1ccccc1)C(=O)N[C@@H](Cc1c[nH]c2ccccc12)C(=O)NCC(=O)O [compound 70] (H-MSRMWFLNSFWG-OH)
[1]
  pEC50: < 4.52
[2]
  pKd: < 4.52
[3]
  viability: 98.5%

## CC[C@H](C)[C@@H]1NC(=O)[C@H](CC(C)C)NC(=O)[C@H]([C@@H](C)CC)NC(=O)[C@H](Cc2c[nH]c3ccccc23)NC(=O)[C@H](CCSC)NC(=O)[C@@H](N)CCCCNC(=O)CNC(=O)[C@H](Cc2c[nH]c3ccccc23)NC(=O)[C@H](Cc2ccccc2)NC(=O)[C@H](CO)NC1=O [compound 71] (HELM PEPTIDE1{K.M.W.I.L.I.S.F.W.G}$PEPTIDE1,PEPTIDE1,1:R3-10:R2$$$V2.0)
[1]
  pEC50: < 4.52
[2]
  pKd: < 4.52
[3]
  viability: 93.7%

## CC[C@H](C)[C@H](NC(=O)[C@H](CC(C)C)NC(=O)[C@H](Cc1ccccc1)NC(=O)[C@H](Cc1c[nH]c2ccccc12)NC(=O)[C@H](CCSC)NC(=O)[C@H](CCCNC(=N)N)NC(=O)[C@H](CO)NC(=O)[C@@H](N)CCSC)C(=O)N[C@@H](CO)C(=O)N[C@@H](Cc1ccccc1)C(=O)N[C@@H](Cc1c[nH]c2ccccc12)C(N)=O [compound 72] (H-MSRMWFLISFW-NH2)
[1]
  pEC50: < 4.52
[2]
  pKd: < 4.52
[3]
  viability: 88.6%

## CC[C@H](C)[C@H](NC(=O)[C@H](CC(C)C)NC(=O)[C@H](Cc1ccccc1)NC(=O)[C@H](Cc1c[nH]c2ccccc12)NC(=O)[C@H](CCSC)NC(=O)[C@H](CCCNC(=N)N)NC(=O)[C@@H](NC(=O)[C@@H](N)CCSC)[C@@H](C)O)C(=O)N[C@@H](CO)C(=O)N[C@@H](Cc1ccccc1)C(=O)N[C@@H](Cc1c[nH]c2ccccc12)C(N)=O [compound 73] (H-MTRMWFLISFW-NH2)
[1]
  pEC50: < 4.52
[2]
  pKd: < 4.52
[3]
  viability: 97.3%
